{
  "source": "ChEMBL document CHEMBL5325414",
  "about": "“Novel neuroprotective pyromeconic acid derivatives with concurrent anti-Aβ deposition, anti-inflammatory, and anti-oxidation properties for treatment of Alzheimer's disease” (Eur J Med Chem, 2023)",
  "key": {"Mus musculus [1]": {"system": "Mus musculus", "assay": "In vivo antiinflammatory activity in scopolamine induced cognitive impaired ICR mouse assessed as decrease in IL-1 levels in cortex", "format": "functional, organism-based"}, "Mus musculus [2]": {"system": "Mus musculus", "assay": "Anti alzheimer activity in scopolamine induced anxiety in ICR mouse assessed as increase in crossing time by measuring escape latency pretreated with scopolamine at 3 mg/kg, ip for 31 days followed by compound addition at 20 mg/kg, po at day 7 to 31 by morris water maze test", "format": "functional, organism-based", "details": "time 25.0 day"}, "[3]": {"assay": "Metal chelating activity assessed as compound-K+ complex formation by optical shift at 50 uM in PBS buffer 7.4 by UV-vis spectrometric analysis"}, "BV-2 [4]": {"system": "BV-2", "assay": "Effect of amyloid beta (1 to 42) indued apoptosis in mouse BV-2 cells assessed as viable cells at 2.5 uM measured by propidium iodide staining based flow cytometric analysis (reference value: 61.29%)", "format": "functional", "details": "read-out: Activity"}, "[5]": {"assay": "Drug concentration in plasma of Sprague-Dawley rat at 15 mg/kg, IG measured after 4 hrs", "format": "ADME, organism-based", "details": "po"}, "BV-2 [6]": {"system": "BV-2", "assay": "Neuroprotective activity against amyloid beta (1 to 42) induced neurotoxicity in mouse BV-2 cells assessed as survival of cells treated for 24 hrs", "format": "functional, cell-based", "details": "dose 2.5-10 µM"}, "[7]": {"assay": "Tmax in Sprague-Dawley rat at 15 mg/kg, IG", "format": "ADME, organism-based", "details": "in vivo, po"}, "[8]": {"assay": "Metal chelating activity assessed as compound-Cu2+ complex formation by measuring shift at 1:1 at 50 uM in PBS buffer 7.4 by UV-vis spectrometric analysis"}, "BV-2 [9]": {"system": "BV-2", "assay": "Effect of amyloid beta (1 to 42) indued apoptosis in mouse BV-2 cells assessed as viable cells at 10 uM measured by propidium iodide staining based flow cytometric analysis (reference value: 61.29%)", "format": "functional", "details": "read-out: Activity"}, "BV-2 [10]": {"system": "BV-2", "assay": "Effect on H2O2 induced reactive oxygen species in mouse BV-2 cells assessed as reduction of ROS generation at 5 uM by fluorescence microscopic analysis relative to control", "format": "functional", "parameters": "scale not given: the % may be the effect or the level left"}, "Mus musculus [11]": {"system": "Mus musculus", "assay": "Antioxidant activity in scopolamine induced cognitive impaired mouse assessed as increase of GSH level in cortex at 20 mg/kg", "format": "functional, organism-based"}, "Mus musculus [12]": {"system": "Mus musculus", "assay": "Anti alzheimer activity in scopolamine induced anxiety in ICR mouse assessed as improved memory function pretreated with scopolamine at 3 mg/kg, ip for 31 days followed by compound addition at 20 mg/kg, po at day 7 to 31 by morris water maze test", "format": "functional, organism-based", "details": "time 25.0 day"}, "[13]": {"assay": "Ratio of drug concentration in hippocampus to plasma of Sprague-Dawley rat at 15 mg/kg, IG measured after 4 hrs", "format": "ADME, organism-based", "details": "po"}, "Mus musculus [14]": {"system": "Mus musculus", "assay": "Antioxidant activity in scopolamine induced cognitive impaired mouse assessed as reversal of HO-1 level in cortex at 20 mg/kg", "format": "functional, organism-based"}, "Mus musculus [15]": {"system": "Mus musculus", "assay": "Anti alzheimer activity in scopolamine induced anxiety in ICR mouse assessed as improved cognitive function pretreated with scopolamine at 3 mg/kg, ip for 31 days followed by compound addition at 20 mg/kg, po at day 7 to 31 by morris water maze test", "format": "functional, organism-based", "details": "time 25.0 day"}, "BV-2 [16]": {"system": "BV-2", "assay": "Antioxidant activity in H2O2 treated mouse BV-2 cells assessed as reversal of HO-1 level at 5 to 20 uM by immunofluorescence analysis", "format": "functional, cell-based", "details": "dose 5-20 µM"}, "[17]": {"target": "Amyloid-beta precursor protein (Homo sapiens, UniProt P05067)", "sequence (P05067 whole entry)": "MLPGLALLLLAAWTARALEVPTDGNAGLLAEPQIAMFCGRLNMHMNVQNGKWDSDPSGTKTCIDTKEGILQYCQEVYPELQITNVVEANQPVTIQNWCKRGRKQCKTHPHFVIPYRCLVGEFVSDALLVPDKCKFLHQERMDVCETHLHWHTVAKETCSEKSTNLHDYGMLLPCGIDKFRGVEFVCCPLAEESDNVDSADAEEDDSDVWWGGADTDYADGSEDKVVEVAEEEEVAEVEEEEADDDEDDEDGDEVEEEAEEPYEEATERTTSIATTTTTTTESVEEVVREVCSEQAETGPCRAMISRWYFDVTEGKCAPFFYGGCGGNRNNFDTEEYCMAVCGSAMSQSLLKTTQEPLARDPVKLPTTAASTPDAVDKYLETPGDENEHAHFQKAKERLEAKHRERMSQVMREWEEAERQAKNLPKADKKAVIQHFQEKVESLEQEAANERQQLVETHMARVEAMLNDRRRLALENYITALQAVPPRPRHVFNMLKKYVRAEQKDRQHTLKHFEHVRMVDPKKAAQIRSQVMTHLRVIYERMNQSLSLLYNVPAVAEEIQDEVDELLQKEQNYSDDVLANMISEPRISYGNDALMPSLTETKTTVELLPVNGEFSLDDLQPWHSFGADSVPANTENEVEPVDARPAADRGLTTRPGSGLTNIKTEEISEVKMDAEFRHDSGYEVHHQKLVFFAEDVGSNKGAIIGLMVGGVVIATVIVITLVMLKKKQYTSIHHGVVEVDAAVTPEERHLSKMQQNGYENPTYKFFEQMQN", "assay": "Inhibition of amyloid beta (1 to 42) (unknown origin) self aggregation"}, "[18]": {"assay": "Drug concentration in hippocampus of Sprague-Dawley rat at 15 mg/kg, IG measured after 1 hrs", "format": "ADME, organism-based", "details": "po, read-out: Drug uptake"}, "Mus musculus [19]": {"system": "Mus musculus", "assay": "In vivo antiinflammatory activity in scopolamine induced cognitive impaired ICR mouse assessed as decrease in GFAP levels in hippocampus by immunoblot analysis", "format": "functional, organism-based"}, "BV-2 [20]": {"system": "BV-2", "assay": "Effect of amyloid beta (1 to 42) indued apoptosis in mouse BV-2 cells assessed as early apoptotic cells at 10 uM measured by propidium iodide staining based flow cytometric analysis (reference value: 26.12%)", "format": "functional"}, "Mus musculus [21]": {"system": "Mus musculus", "assay": "In vivo effect on NRF2 expression in scopolamine induced cognitive impaired mouse assessed as reversal of NRF2 signalling in hippocampus treated at 20 mg/kg by immunoblot analysis", "format": "functional, organism-based"}, "[22]": {"assay": "Acute toxicity in mouse assessed as lethal dose administered as single IG dose measured after 14 days measured by H and E staining analysis", "details": "in vivo, po, time 14 day"}, "[23]": {"assay": "Drug concentration in hippocampus of Sprague-Dawley rat at 15 mg/kg, IG measured after 0.083 hrs", "format": "ADME, organism-based", "details": "po, read-out: Drug uptake"}},
  "note": "pIC50: −log10 of the molar value. Active and inactive are the calls of the source. No cut-off for these calls is given here.",
  "data": [
    {"smiles": "O=c1ccoc(/C=C/c2ccc(O)c(O)c2)c1O", "values": [
      {"measurement": "Activity", "setting": "Mus musculus [1]", "result": "Active"},
      {"measurement": "Activity", "setting": "Mus musculus [2]", "result": "Active"},
      {"measurement": "Activity", "setting": "[3]", "result": "inactive"},
      {"measurement": "viability at 2.5 µM", "setting": "BV-2 [4]", "result": 76.2, "unit": "%"},
      {"measurement": "concentration at 4 h", "setting": "[5]", "result": 0.95, "unit": "ng/mL"},
      {"measurement": "Activity", "setting": "BV-2 [6]", "result": "Dose-Dependent Effect"},
      {"measurement": "Tmax", "setting": "[7]", "result": 10.2, "unit": "min"},
      {"measurement": "Activity", "setting": "[8]", "result": "Active"},
      {"measurement": "viability at 10 µM", "setting": "BV-2 [9]", "result": 63.1, "unit": "%"},
      {"measurement": "Activity", "setting": "BV-2 [10]", "result": 19.45, "unit": "%"},
      {"measurement": "Activity", "setting": "Mus musculus [11]", "result": "Active"},
      {"measurement": "Activity", "setting": "Mus musculus [12]", "result": "Active"},
      {"measurement": "Kp at 4 h", "setting": "[13]", "result": 5.62},
      {"measurement": "Activity", "setting": "Mus musculus [14]", "result": "Active"},
      {"measurement": "Activity", "setting": "Mus musculus [15]", "result": "Active"},
      {"measurement": "Activity", "setting": "BV-2 [16]", "result": "Active"},
      {"measurement": "pIC50", "setting": "[17]", "result": 4.95},
      {"measurement": "concentration at 1 h", "setting": "[18]", "result": 8.72, "unit": "ng/mL"},
      {"measurement": "Activity", "setting": "Mus musculus [19]", "result": "Active"},
      {"measurement": "Activity", "setting": "BV-2 [20]", "result": 22.1, "unit": "%"},
      {"measurement": "Activity", "setting": "Mus musculus [21]", "result": "Active"},
      {"measurement": "LD50 at 336 h", "setting": "[22]", "result": "≥ 2000", "unit": "mg/kg"},
      {"measurement": "concentration at 0.083 h", "setting": "[23]", "result": 1.14, "unit": "ng/mL"}
    ]}
  ]
}
